Laboratory results published in patent publication US20180169136A1, “USE OF PHARMACEUTICAL COMPOSITION IN PREPARATION OF DRUG FOR PROMOTING CHONDROCYTE GENERATION” (KAOHSIUNG MEDICAL UNIVERSITY, priority 2015, published 2018).
Values joined by “and” are separate entries in the source; they are usually repeats but may differ in a detail not shown here. Equal entries are not always repeated.

What was measured:
[1] = tested on: human adipose-derived stem cells (hADSCs); test: sGAG formation (DMMB analysis) in hADSCs cultured in wells coated with or without hyaluronic acid; type: cell-based; conditions: day 7, standardized with DNA
Protocol: Sulfated glycosaminoglycan (sGAG) is a major extracellular matrix of articular cartilage. In order to test whether simvastatin can promote the expression of sGAG in human adipose-derived stem cells (hADSCs) and its optimal concentration, the present invention first prepared hyaluronic acid (HA) coated wells by coating hyaluronic acid dissolved in 1 ml of phosphate buffer (PBS, 1% w/w) on a 24-well plate, standing at 37° C. for 48 hours, then washed with PBS two times. Human adipose-derived stem cells were seeded in wells containing 500 μl of basal medium at a density of 1×10^5 cells per well, wherein the basal medium contains Dulbecco's modified Eagle's medium (DMEM), and was additionally supplemented with 5% fetal bovine serum (FBS), 1% nonessential amino acids and 100 U/ml of penicillin/streptomycin (Gibco-BRL, Grand Island, N.Y.). During the culturing period, simvastatin at different concentrations (0.1 to 1 μM) was added to the well plate, and the medium was replaced with fresh one every two days. On day 7 after the cultivation started, cells were collected for dimethylmethylene blue (DMMB) analysis with Blyscan sulfated glycosaminoglycan reagent (Biocolor, Antrim, UK), and for standardization of sulfated glycosaminoglycan (sGAG) formation with DNA.

Sox-9 = test: real-time PCR, chondrogenic gene Sox-9 in hADSCs in HA-coated or non-coated wells; type: cell-based, human; conditions: 1 μM simvastatin, with or without 1% HA coating, 1 to 5 days
Protocol: (§1) Human adipose-derived stem cells (hADSCs) were cultured in wells coated with hyaluronic acid (HA) and without hyaluronic acid (non-HA), and treated with or without 1 μM of simvastatin (SIM) for 1 to 5 days. […]
(§2) Cells were harvested on designated days and analyzed for the expression of BMP-2 and chondrogenic genes using real-time PCR. […] Real-time PCR reactions were performed and monitored by using iQTM SYBR Green® supermix (Bio-Rad Laboratories Inc, Hercules, Calif.) and a quantitative real-time PCR detection system (Bio-Rad Laboratories Inc, Hercules, Calif.). […] The expression level of each of the target genes, as previously described, was calculated as 2-ΔΔCt. For each gene of interest, four readings were performed for each of the experimental samples, each experiment was repeated for at least three times. […]

aggrecan = test: real-time PCR, chondrogenic gene aggrecan in hADSCs in HA-coated or non-coated wells; type: cell-based, human; conditions: 1 μM simvastatin, with or without 1% HA coating, 1 to 5 days
Protocol: as §1, §2

Col II = test: real-time PCR, chondrogenic gene Col II in hADSCs in HA-coated or non-coated wells; type: cell-based, human; conditions: 1 μM simvastatin, with or without 1% HA coating, 1 to 5 days
Protocol: as §1, §2

BMP-2 = test: real-time PCR, BMP-2 gene expression in hADSCs in HA-coated or non-coated wells; type: cell-based, human; conditions: relative to Non-HA group day 1 = 1, simvastatin 1 μM, HA 1%
Protocol: Human adipose-derived stem cells (hADSCs) were cultured in wells coated with hyaluronic acid (HA) and without hyaluronic acid (non-HA), and treated with or without 1 μM of simvastatin (SIM) for 1 to 5 days. The present invention was therefore divided into four experimental groups: (1) No hyaluronic acid (Non-HA) group: human adipose-derived stem cells were cultured in wells not coated with hyaluronic acid and not treated with simvastatin (1 μM); (2) No hyaluronic acid plus simvastatin (Non-HA+Sim) group: human adipose-derived stem cells were cultured in wells not coated with hyaluronic acid but treated with simvastatin (1 μM); (3) Hyaluronic acid (HA) group: human adipose-derived stem cells were cultured in wells coated with hyaluronic acid but not treated with simvastatin (1 μM); and (4) Hyaluronic acid plus simvastatin (HA+Sim) group: human adipose-derived stem cells were cultured in wells coated with hyaluronic acid and treated with simvastatin (1 μM).
Cells were harvested on designated days and analyzed for the expression of BMP-2 and chondrogenic genes using real-time PCR. Total RNA of these cells was extracted by following the manufacturer's instructions and using TRIzol reagent (Gibco BRL, Rockville, Md.). In short, a reaction volume of 20 μl was taken which contained 0.5 to 1 μg of total RNA, and then RNA was reverse-transcribed into cDNA by using the SuperScript First-Strand Synthesis System (Invitrogen). Real-time PCR reactions were performed and monitored by using iQTM SYBR Green® supermix (Bio-Rad Laboratories Inc, Hercules, Calif.) and a quantitative real-time PCR detection system (Bio-Rad Laboratories Inc, Hercules, Calif.). […] The expression level of each of the target genes, as previously described, was calculated as 2-ΔΔCt. For each gene of interest, four readings were performed for each of the experimental samples, each experiment was repeated for at least three times. […]

osteocalcin = test: real-time PCR, osteocalcin gene expression in hADSCs in HA-coated or non-coated wells; type: cell-based, human; conditions: day 1 to day 5; relative to Non-HA group day 1 = 1; simvastatin 1 μM
Protocol: as §1, §2

CCC(C)(C)C(=O)O[C@H]1C[C@@H](C)C=C2C=C[C@H](C)[C@H](CC[C@@H]3C[C@@H](O)CC(=O)O3)[C@H]21 [simvastatin]
expression level of sGAG ([1]; absence of hyaluronic acid (Non-HA), simvastatin 0.1 μM): 0.5 µg/µg | expression level of sGAG ([1]; absence of hyaluronic acid (Non-HA), simvastatin 0.5 μM): 0.5 µg/µg | expression level of sGAG ([1]; absence of hyaluronic acid (Non-HA), simvastatin 1 μM): 0.7 µg/µg | expression level of sGAG ([1]; presence of 1% hyaluronic acid, simvastatin 0.1 μM): 1.3 µg/µg | expression level of sGAG ([1]; presence of 1% hyaluronic acid, simvastatin 0.5 μM): 2.5 µg/µg | expression level of sGAG ([1]; presence of 1% hyaluronic acid, simvastatin 1 μM): 2.8 µg/µg | expression of chondrogenic gene Sox-9 (Sox-9): failed to effectively enhance | expression of chondrogenic gene aggrecan (aggrecan): failed to effectively enhance | expression of chondrogenic gene Col II (Col II): failed to effectively enhance | expression of BMP-2 gene (BMP-2; day 1): 1.2 fold | expression of BMP-2 gene (BMP-2; day 3): 0.8 fold | expression of BMP-2 gene (BMP-2; day 5, listed as Non-HA+Sim): 1.1 fold and 2.1 fold | expression of osteocalcin gene (osteocalcin): significantly increased
